What was measured:
[1] = biological target: T1, BRAF^WT (Homo sapiens, UniProt P15056); assay: SelectScreen Z'-LYTE kinase activity assay; type: biochemical; conditions: 100 μM ATP
T1 construct: purchased Invitrogen (SelectScreen service)
Description: (§2) BRAF kinase assays were performed using the Z’-LYTE™ enzymatic assay (Invitrogen, USA). […] Titrations were performed using a 1:3 dilution. Assays were performed using SelectScreen (Invitrogen).

[2] = biological target: T2, ABL1 (Homo sapiens, UniProt P00519); assay: SelectScreen kinase activity assay; type: biochemical; conditions: 100 μM ATP
T2 construct: purchased Invitrogen (SelectScreen service)
Description: as §2

[3] = test system: HEK293H cells expressing p61BRAF^V600E/R509H; assay: p-ERK inhibition in transfected HEK293H cells; type: cell-based; conditions: HEK293-H, 1 μM lapatinib pre-treatment 1 h, PHI1 1 h, read-out: IC50 of pERK inhibition
Description: (§1) HEK239H cells were seeded in 6-well plates (1 × 10^6 cells per well) and transfected the following day using Lipofectamine 3000 (Invitrogen L3000008) according to the manufacturer’s instructions. 2 μg of p61BRAF^V600E plasmid (pcDNA-3 vector) DNA per well was employed. […] ERK signaling and BRAF^V600E expression was assessed by western blot. […] In addition, HEK239H cells seeded in 6-well plates (1 × 10^6 cells per well) were transfected with Lipofectamine 3000 containing 2 μg of p61BRAF^V600E plasmid or 2 μg of p61BRAF^V600ER509H plasmid (pcDNA-3 vector) DNA per well. 24 h after transfection cells were treated with DMSO or increasing concentrations of PHI1 for 1 h and ERK signaling, and BRAF expression was assessed by western blot.

[4] = test system: HEK293H cells expressing p61BRAF^V600E; assay: p-ERK inhibition in transfected HEK293H cells; type: cell-based; conditions: HEK293-H, 1 μM lapatinib pre-treatment 1 h, PHI1 1 h, read-out: IC50 of pERK inhibition
Description: as §1

[5] = biological target: BRAF^V600E monomers in A375 cells (Homo sapiens, UniProt P15056, V600E); assay: Cellular Thermal Shift Assay (CETSA); type: cell-based; conditions: 20 μΜ compound, versus DMSO
Description: The samples were incubated for 1 h at room temperature, rotating. After compound incubation, samples (50 μL each) were transferred in PCR tubes and incubated for 3 min in a temperature gradient produced with a C1000 thermal cycler (Bio-Rad). Cells were immediately lysed by repeating freeze-thaw cycles (3× times) in liquid nitrogen. […] Equal volumes of supernatants were run on 15-well 4–12% NuPAGE SDS-PAGE gels (Invitrogen), and analyzed by western blot. GAPDH, which is temperature insensitive under these conditions, served as loading control. Results were quantitated by densitometric analysis as described above.

[6] = biological target: T3, ABL1(E255K)-phosphorylated (Homo sapiens, UniProt P00519, E255K); assay: KINOMEscan scanEDGE binding; conditions: KinomeEDGE scan, compound at 1 μΜ
T3 construct: purchased Eurofins/DiscoverX KINOMEscan (scanEDGE panel)

[7] = biological target: T4, ABL1(T315I)-phosphorylated (Homo sapiens, UniProt P00519, T315I); assay: KINOMEscan scanEDGE binding; conditions: KinomeEDGE scan, compound at 1 μΜ
T4 construct: purchased Eurofins/DiscoverX KINOMEscan (scanEDGE panel)

[8] = biological target: T5, ABL1-nonphosphorylated (Homo sapiens, UniProt P00519); assay: KINOMEscan scanEDGE binding; conditions: KinomeEDGE scan, compound at 1 μΜ
T5 construct: purchased Eurofins/DiscoverX KINOMEscan (scanEDGE panel)

[9] = biological target: T6, ACVR1B (Homo sapiens, UniProt P36896); assay: KINOMEscan scanEDGE binding; conditions: KinomeEDGE scan, compound at 1 μΜ
T6 construct: purchased Eurofins/DiscoverX KINOMEscan (scanEDGE panel)

[10] = test system: EPHA; assay: KINOMEscan scanEDGE binding; design: species or system human; conditions: KinomeEDGE scan, compound at 1 μΜ
[11] = biological target: T7, ROCK2 (Homo sapiens, UniProt O75116); assay: KINOMEscan scanEDGE binding; conditions: KinomeEDGE scan, compound at 1 μΜ
T7 construct: purchased Eurofins/DiscoverX KINOMEscan (scanEDGE panel)

[12] = biological target: BRAF^V600E (Homo sapiens, UniProt P15056, V600E); assay: SelectScreen Z'-LYTE kinase activity assay; type: biochemical; design: purchased Invitrogen (SelectScreen service); conditions: 100 μM ATP
Description: as §2

[13] = biological target: T8, FLT3 (Homo sapiens, UniProt P36888); assay: SelectScreen kinase activity assay; type: biochemical; design: purchased Invitrogen (SelectScreen service); conditions: PHI1 versus Ponatinib
T8 sequence (P36888 27-993): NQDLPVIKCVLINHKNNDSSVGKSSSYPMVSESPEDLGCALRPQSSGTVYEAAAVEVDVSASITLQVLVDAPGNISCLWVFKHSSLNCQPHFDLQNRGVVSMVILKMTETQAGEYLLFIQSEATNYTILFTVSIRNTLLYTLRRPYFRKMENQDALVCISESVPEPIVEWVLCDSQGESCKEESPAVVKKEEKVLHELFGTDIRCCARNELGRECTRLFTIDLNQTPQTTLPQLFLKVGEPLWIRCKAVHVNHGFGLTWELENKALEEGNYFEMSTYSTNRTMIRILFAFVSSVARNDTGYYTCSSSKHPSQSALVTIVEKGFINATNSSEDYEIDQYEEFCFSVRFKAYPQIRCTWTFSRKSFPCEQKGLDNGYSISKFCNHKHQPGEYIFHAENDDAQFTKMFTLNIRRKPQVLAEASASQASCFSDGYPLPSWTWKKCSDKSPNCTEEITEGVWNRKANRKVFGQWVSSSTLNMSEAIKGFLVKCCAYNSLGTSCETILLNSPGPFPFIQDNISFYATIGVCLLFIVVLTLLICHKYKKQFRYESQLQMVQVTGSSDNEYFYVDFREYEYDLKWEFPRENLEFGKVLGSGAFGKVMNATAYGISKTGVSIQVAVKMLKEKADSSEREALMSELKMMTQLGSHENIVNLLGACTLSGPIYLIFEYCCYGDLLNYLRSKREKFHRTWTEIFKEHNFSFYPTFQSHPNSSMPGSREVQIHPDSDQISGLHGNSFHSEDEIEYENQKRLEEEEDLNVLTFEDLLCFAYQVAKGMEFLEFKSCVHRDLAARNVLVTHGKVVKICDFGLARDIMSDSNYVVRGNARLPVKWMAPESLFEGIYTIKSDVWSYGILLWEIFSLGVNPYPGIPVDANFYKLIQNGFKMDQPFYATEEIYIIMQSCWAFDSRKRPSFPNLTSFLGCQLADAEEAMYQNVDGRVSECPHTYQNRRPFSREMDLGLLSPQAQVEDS
Description: as §2

[14] = biological target: T9, CRAF (Homo sapiens, UniProt P04049); assay: CRAF kinase activity assay (western blot); type: biochemical
T9 construct: purchased Millipore #17-360
Description: Kinase activity assays were performed using BRAF Kinase Assay Kit (#17-359), CRAF Kinase Assay Kit (#17-360) and MAP Kinase/Erk Assay Kit (#17-191), following protocols by the provider (Millipore) with some modifications. In brief, BRAF and CRAF, and MEK1 recombinant proteins were incubated for 15 min with inhibitors, then corresponding substrates were added and incubated for 30 min at 30 °C and assayed via western blot.

[15] = biological target: T10, BTK (Homo sapiens, UniProt Q06187); assay: KINOMEscan scanEDGE binding; conditions: KinomeEDGE scan, compound at 1 μΜ
T10 construct: purchased Eurofins/DiscoverX KINOMEscan (scanEDGE panel)

[16] = biological target: T11, CDK7 (Homo sapiens, UniProt P50613); assay: KINOMEscan scanEDGE binding; conditions: KinomeEDGE scan, compound at 1 μΜ
T11 construct: purchased Eurofins/DiscoverX KINOMEscan (scanEDGE panel)

[17] = biological target: T12, CDK9 (Homo sapiens, UniProt P50750); assay: KINOMEscan scanEDGE binding; conditions: KinomeEDGE scan, compound at 1 μΜ
T12 construct: purchased Eurofins/DiscoverX KINOMEscan (scanEDGE panel)

[18] = biological target: T13, EGFR (Homo sapiens, UniProt P00533); assay: KINOMEscan scanEDGE binding; conditions: KinomeEDGE scan, compound at 1 μΜ
T13 construct: purchased Eurofins/DiscoverX KINOMEscan (scanEDGE panel)

[19] = biological target: T14, FGFR3 (Homo sapiens, UniProt P22607); assay: KINOMEscan scanEDGE binding; conditions: KinomeEDGE scan, compound at 1 μΜ
T14 construct: purchased Eurofins/DiscoverX KINOMEscan (scanEDGE panel)

[20] = biological target: T15, IKK-beta (Homo sapiens, UniProt O14920); assay: KINOMEscan scanEDGE binding; conditions: KinomeEDGE scan, compound at 1 μΜ
T15 construct: purchased Eurofins/DiscoverX KINOMEscan (scanEDGE panel)

[21] = biological target: T16, MKNK2 (Homo sapiens, UniProt Q9HBH9); assay: KINOMEscan scanEDGE binding; conditions: KinomeEDGE scan, compound at 1 μΜ
T16 construct: purchased Eurofins/DiscoverX KINOMEscan (scanEDGE panel)

[22] = biological target: T17, TYK2(JH1domain-catalytic) (Homo sapiens, UniProt P29597); assay: KINOMEscan scanEDGE binding; conditions: KinomeEDGE scan, compound at 1 μΜ
T17 construct: TYK2(JH1domain-catalytic); purchased Eurofins/DiscoverX KINOMEscan (scanEDGE panel)

T9 sequence (P04049 whole entry, species assumed): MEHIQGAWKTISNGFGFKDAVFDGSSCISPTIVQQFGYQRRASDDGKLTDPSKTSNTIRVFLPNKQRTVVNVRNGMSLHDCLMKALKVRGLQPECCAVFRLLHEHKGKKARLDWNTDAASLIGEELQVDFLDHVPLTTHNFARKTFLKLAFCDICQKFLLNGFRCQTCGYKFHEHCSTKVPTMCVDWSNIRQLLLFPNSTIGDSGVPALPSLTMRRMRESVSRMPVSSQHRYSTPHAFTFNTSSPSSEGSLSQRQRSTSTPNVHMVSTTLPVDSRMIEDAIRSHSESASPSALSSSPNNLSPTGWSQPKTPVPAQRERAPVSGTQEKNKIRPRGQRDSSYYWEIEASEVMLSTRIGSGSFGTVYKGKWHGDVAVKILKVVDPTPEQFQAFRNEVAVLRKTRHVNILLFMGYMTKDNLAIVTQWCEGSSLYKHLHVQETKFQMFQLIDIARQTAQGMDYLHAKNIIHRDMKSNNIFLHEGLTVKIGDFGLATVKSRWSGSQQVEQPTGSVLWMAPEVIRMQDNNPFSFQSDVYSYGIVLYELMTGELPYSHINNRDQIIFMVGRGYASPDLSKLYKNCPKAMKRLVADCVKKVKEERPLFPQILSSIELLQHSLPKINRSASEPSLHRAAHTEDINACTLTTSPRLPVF
T15 sequence (O14920 whole entry): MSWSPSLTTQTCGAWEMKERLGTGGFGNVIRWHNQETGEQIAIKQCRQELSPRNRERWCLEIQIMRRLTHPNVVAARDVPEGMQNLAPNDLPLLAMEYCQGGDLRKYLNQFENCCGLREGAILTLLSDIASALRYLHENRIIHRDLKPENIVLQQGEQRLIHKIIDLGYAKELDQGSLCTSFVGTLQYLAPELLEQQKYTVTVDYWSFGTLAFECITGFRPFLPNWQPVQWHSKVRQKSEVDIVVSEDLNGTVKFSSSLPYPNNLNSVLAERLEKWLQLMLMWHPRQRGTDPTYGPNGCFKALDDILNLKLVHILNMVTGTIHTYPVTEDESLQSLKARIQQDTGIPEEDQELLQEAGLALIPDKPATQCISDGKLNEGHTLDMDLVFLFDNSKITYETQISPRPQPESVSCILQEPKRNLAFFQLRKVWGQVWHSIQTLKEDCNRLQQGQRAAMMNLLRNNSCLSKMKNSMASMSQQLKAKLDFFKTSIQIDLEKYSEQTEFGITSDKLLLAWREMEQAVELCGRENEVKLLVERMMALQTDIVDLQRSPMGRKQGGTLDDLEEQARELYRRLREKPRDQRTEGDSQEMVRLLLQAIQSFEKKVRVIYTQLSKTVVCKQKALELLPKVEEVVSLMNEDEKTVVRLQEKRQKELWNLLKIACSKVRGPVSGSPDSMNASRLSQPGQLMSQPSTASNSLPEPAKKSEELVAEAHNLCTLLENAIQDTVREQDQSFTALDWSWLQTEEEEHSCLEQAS
T16 sequence (Q9HBH9 whole entry): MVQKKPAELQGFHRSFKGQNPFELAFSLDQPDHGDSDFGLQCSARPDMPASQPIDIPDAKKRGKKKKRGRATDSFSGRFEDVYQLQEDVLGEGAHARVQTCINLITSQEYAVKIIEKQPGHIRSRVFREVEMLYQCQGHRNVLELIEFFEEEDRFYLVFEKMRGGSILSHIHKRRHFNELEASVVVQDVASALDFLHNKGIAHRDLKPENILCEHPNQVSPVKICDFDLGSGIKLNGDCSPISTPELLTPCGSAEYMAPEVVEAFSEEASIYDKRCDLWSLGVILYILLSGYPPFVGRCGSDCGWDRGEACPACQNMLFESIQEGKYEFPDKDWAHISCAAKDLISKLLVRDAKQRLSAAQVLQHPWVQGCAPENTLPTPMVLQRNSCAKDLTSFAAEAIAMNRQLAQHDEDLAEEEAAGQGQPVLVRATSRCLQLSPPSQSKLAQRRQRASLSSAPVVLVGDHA
BRAF^V600E, sequence (P15056 whole entry V600E): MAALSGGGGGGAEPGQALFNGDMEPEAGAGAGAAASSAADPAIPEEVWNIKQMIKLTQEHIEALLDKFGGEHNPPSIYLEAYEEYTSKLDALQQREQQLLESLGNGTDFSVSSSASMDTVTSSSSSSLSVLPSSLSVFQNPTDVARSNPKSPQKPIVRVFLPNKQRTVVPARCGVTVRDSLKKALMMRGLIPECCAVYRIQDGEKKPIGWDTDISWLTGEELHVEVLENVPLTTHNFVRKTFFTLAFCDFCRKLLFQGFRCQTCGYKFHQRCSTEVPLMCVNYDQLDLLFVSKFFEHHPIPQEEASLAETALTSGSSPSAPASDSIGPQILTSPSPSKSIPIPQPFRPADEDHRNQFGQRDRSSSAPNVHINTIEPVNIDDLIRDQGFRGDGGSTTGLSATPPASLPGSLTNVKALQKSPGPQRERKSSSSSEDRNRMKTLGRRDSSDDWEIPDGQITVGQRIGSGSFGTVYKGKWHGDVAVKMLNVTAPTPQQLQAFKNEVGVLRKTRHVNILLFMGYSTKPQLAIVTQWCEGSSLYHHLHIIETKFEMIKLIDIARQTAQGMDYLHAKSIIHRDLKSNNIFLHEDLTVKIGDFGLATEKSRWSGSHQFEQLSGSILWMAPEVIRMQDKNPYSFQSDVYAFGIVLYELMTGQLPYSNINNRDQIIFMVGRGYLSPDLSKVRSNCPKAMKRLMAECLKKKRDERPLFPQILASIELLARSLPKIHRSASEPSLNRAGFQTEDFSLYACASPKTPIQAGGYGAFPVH
BRAF^V600E monomers in A375 cells, sequence (P15056 whole entry V600E): as above
T10 sequence (Q06187 whole entry): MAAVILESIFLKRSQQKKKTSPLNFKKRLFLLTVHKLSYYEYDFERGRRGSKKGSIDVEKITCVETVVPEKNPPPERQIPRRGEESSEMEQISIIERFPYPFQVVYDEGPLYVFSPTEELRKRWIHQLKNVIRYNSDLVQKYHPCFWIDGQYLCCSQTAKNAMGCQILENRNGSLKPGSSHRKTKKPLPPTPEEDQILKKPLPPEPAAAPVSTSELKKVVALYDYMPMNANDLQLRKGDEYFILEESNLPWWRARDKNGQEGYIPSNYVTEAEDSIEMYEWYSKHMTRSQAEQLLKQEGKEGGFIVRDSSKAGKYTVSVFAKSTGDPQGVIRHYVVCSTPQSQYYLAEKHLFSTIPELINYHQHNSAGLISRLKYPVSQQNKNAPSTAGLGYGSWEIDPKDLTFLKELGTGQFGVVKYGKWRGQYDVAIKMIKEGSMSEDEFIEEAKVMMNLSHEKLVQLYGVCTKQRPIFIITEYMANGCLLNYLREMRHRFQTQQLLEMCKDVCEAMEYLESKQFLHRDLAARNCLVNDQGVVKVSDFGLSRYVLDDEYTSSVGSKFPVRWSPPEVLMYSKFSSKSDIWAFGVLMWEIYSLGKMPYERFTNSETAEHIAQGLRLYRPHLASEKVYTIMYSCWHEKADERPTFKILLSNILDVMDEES
T11 sequence (P50613 whole entry): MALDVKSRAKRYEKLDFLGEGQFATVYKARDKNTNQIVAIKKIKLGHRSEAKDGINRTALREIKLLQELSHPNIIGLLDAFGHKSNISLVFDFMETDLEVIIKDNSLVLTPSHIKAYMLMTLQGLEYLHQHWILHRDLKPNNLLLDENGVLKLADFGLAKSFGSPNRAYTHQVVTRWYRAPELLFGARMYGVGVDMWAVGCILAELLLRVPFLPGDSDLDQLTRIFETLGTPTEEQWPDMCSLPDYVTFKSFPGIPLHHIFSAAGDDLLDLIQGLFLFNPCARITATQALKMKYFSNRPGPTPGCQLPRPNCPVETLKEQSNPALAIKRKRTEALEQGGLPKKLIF
T6 sequence (P36896 24-505): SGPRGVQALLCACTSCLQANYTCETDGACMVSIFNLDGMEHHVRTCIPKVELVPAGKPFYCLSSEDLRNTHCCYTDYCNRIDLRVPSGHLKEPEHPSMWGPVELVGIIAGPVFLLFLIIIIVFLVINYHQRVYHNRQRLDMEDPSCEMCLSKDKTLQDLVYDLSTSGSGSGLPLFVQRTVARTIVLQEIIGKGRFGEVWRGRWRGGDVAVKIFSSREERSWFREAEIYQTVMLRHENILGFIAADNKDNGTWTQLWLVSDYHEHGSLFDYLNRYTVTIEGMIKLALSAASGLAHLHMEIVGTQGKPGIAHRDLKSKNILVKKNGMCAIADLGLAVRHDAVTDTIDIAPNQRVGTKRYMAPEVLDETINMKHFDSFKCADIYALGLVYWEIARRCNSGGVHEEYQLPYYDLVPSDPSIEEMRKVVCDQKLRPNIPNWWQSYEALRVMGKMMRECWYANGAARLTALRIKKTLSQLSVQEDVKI
T14 sequence (P22607 23-806): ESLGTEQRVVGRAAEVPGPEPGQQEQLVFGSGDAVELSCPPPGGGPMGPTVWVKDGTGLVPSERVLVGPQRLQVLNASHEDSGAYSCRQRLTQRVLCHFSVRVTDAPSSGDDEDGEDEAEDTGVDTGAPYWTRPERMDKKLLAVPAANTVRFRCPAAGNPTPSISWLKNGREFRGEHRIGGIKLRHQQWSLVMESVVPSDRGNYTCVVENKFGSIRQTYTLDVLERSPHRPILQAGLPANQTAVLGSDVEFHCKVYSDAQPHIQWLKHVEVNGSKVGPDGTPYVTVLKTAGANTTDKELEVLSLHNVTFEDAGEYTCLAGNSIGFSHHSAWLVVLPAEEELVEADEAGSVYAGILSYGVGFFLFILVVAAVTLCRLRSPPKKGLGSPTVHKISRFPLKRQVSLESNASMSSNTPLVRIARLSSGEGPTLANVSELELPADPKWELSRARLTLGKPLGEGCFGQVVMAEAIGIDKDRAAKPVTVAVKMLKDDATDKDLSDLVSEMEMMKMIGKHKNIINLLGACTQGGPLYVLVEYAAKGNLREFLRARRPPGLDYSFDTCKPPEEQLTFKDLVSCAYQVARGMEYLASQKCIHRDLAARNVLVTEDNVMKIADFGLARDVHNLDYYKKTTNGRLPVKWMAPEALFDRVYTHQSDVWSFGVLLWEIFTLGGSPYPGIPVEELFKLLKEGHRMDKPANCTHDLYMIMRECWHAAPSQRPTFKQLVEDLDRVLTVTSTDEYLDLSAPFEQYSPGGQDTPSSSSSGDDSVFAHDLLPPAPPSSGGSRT
T1 sequence (P15056 whole entry): as the sequence (P15056 whole entry V600E) above, with E600V counted along it

Cc1ccc(C(=O)Nc2ccc(CNCCN3CCOCC3)c(C(F)(F)F)c2)cc1C#Cc1cnc2cccnn12 [PHI1]
IC50 [1]: 0.323 ± 0.035 µM | IC50 [2]: 0.0084 ± 0.0003 µM | IC50 [3]: 6.8 µM | IC50 [4]: 1.89 µM | ΔTm (CETSA) [5]: +3.4 °C | % Ctrl ABL1(E255K)-phosphorylated [6]: 0.25 % Ctrl | % Ctrl ABL1(T315I)-phosphorylated [7]: 3.5 % Ctrl | % Ctrl ABL1-nonphosphorylated [8]: 0 % Ctrl | % Ctrl ACVR1B [9]: 0.4 % Ctrl | % Ctrl EPHA [10]: 14 % Ctrl | % Ctrl ROCK2 [11]: 35 % Ctrl | IC50 [12]: 0.01 µM | reduction of inhibitory activity on FLT3 compared to Ponatinib [13]: tenfold

Cc1ccc(C(=O)Nc2ccc(CN3CCN(C)CC3)c(C(F)(F)F)c2)cc1C#Cc1cnc2cccnn12 [Ponatinib, 3-[2-(imidazo[1,2-b]pyridazin-3-yl)ethynyl]-4-methyl-N-{4-[(4-methylpiperazin-1-yl)methyl]-3-(trifluoromethyl)phenyl}benzamide]
inhibition of CRAF kinase activity (in words) [14]: potently inhibited | % Ctrl BTK [15]: 22 % Ctrl | % Ctrl CDK7 [16]: 6.2 % Ctrl | % Ctrl CDK9 [17]: 28 % Ctrl | % Ctrl EGFR [18]: 15 % Ctrl | % Ctrl FGFR3 [19]: 0.9 % Ctrl | % Ctrl IKK-beta [20]: 1.4 % Ctrl | % Ctrl MKNK2 [21]: 0.6 % Ctrl | % Ctrl TYK2(JH1domain-catalytic) [22]: 8.6 % Ctrl

Source: publication PMC7462985, “Inhibitors of BRAF dimers using an allosteric site” (Nature Communications, 2020)
